Data from publication PMC12376758, “Restoration of CB1 receptor function in hippocampal GABAergic neurons rescues memory deficits in Huntington’s disease models” (Translational Neurodegeneration, 2025).
Where two headings read alike, the source gives them in different places.

Columns and labels:
CB1R [1] = target: T1, CB1R (Mus musculus, UniProt P47746); assay: biochemical; assay type: binding; conditions: for Fraction high: CP55940 inhibition curve; for IC50: CP55940 vs [3H]SR141716A 2 nmol/L
T1 construct: from tissue

mHtt = test system: mHtt; design: method as in PMID 20929960; conditions: pharmacological activation of CB1R, HD mouse models; cited from earlier work
aged mice = test system: aged mice; design: method as in PMID 16221768, PMID 36697430; conditions: chronic low-dose; cited from earlier work
WT mice [2] = assay: Open field test in WT mice (WIN dose selection); assay type: in vivo, mouse; conditions: 13-week-old WT mice, WIN 1 and 4 mg/kg i.p., 10 days
Procedure: NOLT was conducted in a quadrangular open field (40 cm × 40 cm, 40 cm high) with a light intensity of 40 lx at controlled room conditions (19–22 °C, 40%–60% humidity). Mice were first habituated to the arena, which was devoid of objects but included spatial cues attached to the walls, for 15 min per session over two consecutive days. During this phase, spontaneous locomotor activity, as well as the time and the distance spent in the periphery versus the center, were measured. On the third day (NOLT training), two identical objects (A and A′) were placed in adjacent corners of the arena, and mice were allowed to explore for 10 min. […] Animal movements were tracked and recorded using the SMART® Junior software (Panlab, Spain). Exploration times were recorded to calculate the discrimination index as follows: discriminationindex=Timeexploringnovelobject-Timeexploringfamiliarobject/Timeexploringbothobjects×100\%
Exploration in the NORT followed the same conditions as described for the NOLT. […] During this phase, spontaneous locomotor activity and time/distance spent in the periphery versus the center of the arena were measured. […] Animal movements were tracked and recorded with the SMART® Junior software (Panlab, Spain). Exploration times were recorded and used to calculate the discrimination index as indicated above. […]

WT mice [3] = assay: Novel object location task (NOLT) in WT mice (WIN dose selection); assay type: in vivo, mouse; conditions: 13-week-old WT mice, WIN 1 and 4 mg/kg i.p., 10 days
Procedure: NOLT was conducted in a quadrangular open field (40 cm × 40 cm, 40 cm high) with a light intensity of 40 lx at controlled room conditions (19–22 °C, 40%–60% humidity). Mice were first habituated to the arena, which was devoid of objects but included spatial cues attached to the walls, for 15 min per session over two consecutive days. During this phase, spontaneous locomotor activity, as well as the time and the distance spent in the periphery versus the center, were measured. On the third day (NOLT training), two identical objects (A and A′) were placed in adjacent corners of the arena, and mice were allowed to explore for 10 min. Twenty-four hours later (NOLT testing), the object A was placed in the same location, while a new object (A″) was placed in the diagonally opposite corner. During the testing phase, mice were allowed to explore for 5 min. The arena was thoroughly cleaned between trials to eliminate residual odors. Animal movements were tracked and recorded using the SMART® Junior software (Panlab, Spain). Exploration times were recorded to calculate the discrimination index as follows: discriminationindex=Timeexploringnovelobject-Timeexploringfamiliarobject/Timeexploringbothobjects×100\%
(§1) Given the observed reduction of CB1R in the R6/1 hippocampus, we hypothesized that pharmacological activation of the remaining CB1Rs could mitigate HD-related memory decline.

WT mice [4] = assay: Novel object recognition task (NORT) in WT mice (WIN dose selection); assay type: in vivo, mouse; conditions: 13-week-old WT mice, WIN 1 and 4 mg/kg i.p., 10 days
Procedure: Exploration in the NORT followed the same conditions as described for the NOLT. Mice were first habituated to the arena, without objects, for 15 min on two consecutive days. During this phase, spontaneous locomotor activity and time/distance spent in the periphery versus the center of the arena were measured. On the third day (NORT training), mice were allowed to explore two identical objects (B and B′) for 10 min before being returned to their home cage. Twenty-four hours later (NORT testing), one of the familiar objects (B) and a new object (C) were placed in the same location as during the training session, and the mice were allowed to explore for 5 min. The arena was thoroughly cleaned between trials to prevent odor contamination. Animal movements were tracked and recorded with the SMART® Junior software (Panlab, Spain). Exploration times were recorded and used to calculate the discrimination index as indicated above.
as §1

WT mice [5] = assay: Y-maze in WT mice (WIN dose selection); assay type: in vivo, mouse; conditions: 13-week-old WT mice, WIN 1 and 4 mg/kg i.p., 10 days
Procedure: (§2) Spontaneous working memory was assessed using the Y-maze test. Mice were habituated to the testing room 1 h prior to the session. During the 8-min trial, each mouse was placed in the center of the maze and allowed to move freely. An arm entry was recorded when all four paws of the mouse were within the arm. The apparatus was cleaned thoroughly after each trial. Alternation was defined as successive entries into all three arms in an overlapping triplet sequence. Spontaneous alternation was calculated as the ratio of actual alternations to the total possible alternations, and the result was expressed as a percentage.
as §1

R6/1 mice = assay: Y-maze spontaneous alternation in R6/1 mice; assay type: in vivo, mouse; conditions: WIN 1 mg/kg i.p. 10 days
Procedure: To selectively induce CB1R expression in GABAergic neurons, we generated a plasmid for AAV8-mDlx5/6-CNR1. Infectious AAV viral particles were developed by the Viral Vector Production Unit (UPV) of the Universitat Autònoma de Barcelona (UAB). WT and R6/1 mice, aged 10 weeks, were anesthetized with ketamine hydrochloride/xylazine hydrochloride (i.p.; 100 and 10 mg/kg, respectively, Merck) and injected bilaterally in the hippocampus with AAV8-mDlx-CB1R or AAV8-mCherry (Vector Biolabs) (viral concentrations ranging from 1.8 × 10^9 to 1.5 × 10^9). The injection coordinates (in mm) from bregma (anteroposterior and lateral) and from skull (dorsoventral) were as follows: anteroposterior: − 2.0; lateral ± 1.25, and dorsoventral: − 1.3 (CA1). AAVs were injected for over 2 min, and the cannula was left in place for an additional 5 min to allow complete diffusion of the virus before being slowly retracted. Mice were monitored for 1 h post-injection and then returned to the housing facility for 3 weeks. […] For double-positive quantification, Pearson’s correlation coefficient was calculated using ImageJ2. […]
Spontaneous working memory was assessed using the Y-maze test. […] An arm entry was recorded when all four paws of the mouse were within the arm. […] Spontaneous alternation was calculated as the ratio of actual alternations to the total possible alternations, and the result was expressed as a percentage.

[6] = test system: Hdh^Q7/Q111 mutant KI mice; assay: NOLT, NORT and Y-maze in Hdh^Q7/Q111 KI mice; assay type: in vivo, mouse; conditions: 6 months, sub-chronic WIN 1 mg/kg i.p.
Procedure: as §2
NOLT was conducted in a quadrangular open field (40 cm × 40 cm, 40 cm high) with a light intensity of 40 lx at controlled room conditions (19–22 °C, 40%–60% humidity). […] During this phase, spontaneous locomotor activity, as well as the time and the distance spent in the periphery versus the center, were measured. […] Animal movements were tracked and recorded using the SMART® Junior software (Panlab, Spain). Exploration times were recorded to calculate the discrimination index as follows: discriminationindex=Timeexploringnovelobject-Timeexploringfamiliarobject/Timeexploringbothobjects×100\%
Exploration in the NORT followed the same conditions as described for the NOLT. […] Animal movements were tracked and recorded with the SMART® Junior software (Panlab, Spain). […]

CB1R [7] = assay type: in vivo, mouse; conditions: for CB1R protein level, Western blot: total hippocampal lysates, WIN 1 mg/kg i.p. 10 days
CB1R [8] = assay type: in vivo, mouse; conditions: hippocampus
Procedure: WT and R6/1 mice were deeply anesthetized with ketamine and xylazine (i.p injection; 100 mg/kg and 10 mg/kg, respectively) and immediately perfused transcardially with saline, followed by 4% paraformaldehyde in phosphate buffer. Brains were then removed, post-fixed overnight in the same solution, cryoprotected by immersion in 30% sucrose, and frozen in dry ice-cooled methylbutane. Serial coronal cryostat sections (30 μm) were collected through the entire brain in PBS as free-floating sections and processed as described previously [47].
Sections were rinsed three times in PBS, permeabilized, and blocked in PBS containing 0.3% Triton X-100 and 3% normal goat serum (Pierce Biotechnology, Rockford, IL) for 15 min at room temperature. […]
Stained coronal sections were examined using a Carl Zeiss LSM880 confocal microscope, a 10 × , 40 × and 63 × oil-immersion objective, 4 × digital zoom, and a standard Airy disc pinhole. For each mouse, at least three 30-µm thick coronal sections containing the hippocampal region were analyzed. […] The CB1R-, calbindin- and GAD67-integrated density was quantified with NIH ImageJ2 version 2.9.0/1.53t (Wayne Rasband, NIH). For double-positive quantification, Pearson’s correlation coefficient was calculated using ImageJ2. […]

[9] = test system: mutant huntingtin (mHtt) aggregates; assay: EM48 immunostaining of mutant huntingtin nuclear aggregates in hippocampus; assay type: in vivo, mouse; conditions: R6/1 mice, hippocampus (CA1), WIN 1 mg/kg i.p. vs vehicle
Procedure: Hippocampal coronal sections from vehicle- and WIN-treated R6/1 mice were first incubated for 30 min in ammonium chloride (NH4Cl) to quench endogenous fluorescence. They were then blocked for 1 h in PBS containing 0.3% Triton X-100 (Merck), 3% normal goat serum (Abcam), and 1% bovine serum albumin (BSA; Merck). After blocking, the sections were incubated overnight at 4 °C with anti-EM48 (1:1000, Merck). The EM48 antibody specifically recognizes huntingtin-containing nuclear aggregates by targeting the first 256 amino acids of human huntingtin protein [48]. […]
Imaging was performed using a Leica Confocal SP5 with a 63 × oil-immersion objective, ensuring consistent imaging conditions (pinhole size:1 AU, resolution: 1024 × 1024 pixels, and intensity). Automated quantification of nuclear huntingtin aggregates, including the number, intensity, and pixel area of EM48-stained nuclei in the hippocampus, was carried out using the ImageJ particle analysis plugin.
The density of aggregates was calculated as the ratio of the number of positive particles (NII) to the pixel area (mm^2). EM48 staining index (SI) was determined as the product of the mean number of stained nuclei and the average nuclear stain intensity, as described previously.

CB2R = assay: Western blot of CB2R in total hippocampal lysates after sub-chronic WIN; assay type: in vivo, mouse; conditions: WIN 1 mg/kg i.p. 10 days
CA1 pyramidal neurons [10] = assay: Golgi-Cox dendritic spine density analysis; assay type: in vivo, mouse; conditions: R6/1 mice, WIN 1 mg/kg i.p. sub-chronic
Procedure: Golgi-Cox impregnation was performed using the Rapid Golgistain Kit (FD Neurotechnologies, Columbia, MD) following the manufacturer's instructions. Mice were euthanized by cervical dislocation, and brains were rapidly removed. The two hemispheres were separated and incubated in a solution of A/B for 2 weeks. After this period, the brains were transferred to solution C for an additional 7 days. The brains were then processed using a cryostat to obtain 100-μm sections, which were mounted on gelatin-coated slides and left to dry for 24 h.
The sections were stained with the solutions provided in the kit and subsequently dehydrated before being mounted with DPX. Bright field images were acquired using a Leica AF6000 epifluorescence microscope with a × 63 numerical aperture objective for dendritic spine analysis. Segments of apical dendrites from hippocampal CA1 pyramidal neurons were selected for analysis. Dendritic spine density was manually quantified using the ImageJ Plug-in Cell Counter. Spines were marked in the appropriate focal plane preventing double counting, and only fully impregnated pyramidal neurons with their soma entirely within the thickness of the section were included. Dendritic segments ranging from 20 to 60 μm in length were analyzed. At least 60 dendrites per group from at least three mice per genotype were counted.

PSD95 = assay: Western blot of PSD95 in hippocampal lysates; assay type: in vivo, mouse; conditions: R6/1 mice, WIN 1 mg/kg i.p. 10 days
BDNF = assay: Western blot of BDNF in hippocampal lysates; assay type: in vivo, mouse; conditions: R6/1 mice, WIN 1 mg/kg i.p. 10 days
CA1 pyramidal neurons [11] = assay: Ex vivo patch-clamp: depolarization-induced suppression of inhibition (DSI); assay type: in vivo, mouse; conditions: hippocampal slices of WIN-treated R6/1 mice, n = 17 neurons
adult rats = test system: adult rats; design: method as in PMID 12888772; conditions: chronic treatment; cited from earlier work
[12] = test system: rat model of cholinergic degeneration; design: method as in PMID 39489624; conditions: low-dose WIN; cited from earlier work
CB1R [13] = test system: CB1R; design: method as in PMID 36979335; conditions: rat model of cerebral ischemia; cited from earlier work
young rats = conditions: chronic WIN; cited from earlier work
[14] = test system: models of vascular dementia and ischemic injury; design: method as in PMID 36979335, PMID 29945070; conditions: cited from earlier work

T1 sequence (P47746 whole entry): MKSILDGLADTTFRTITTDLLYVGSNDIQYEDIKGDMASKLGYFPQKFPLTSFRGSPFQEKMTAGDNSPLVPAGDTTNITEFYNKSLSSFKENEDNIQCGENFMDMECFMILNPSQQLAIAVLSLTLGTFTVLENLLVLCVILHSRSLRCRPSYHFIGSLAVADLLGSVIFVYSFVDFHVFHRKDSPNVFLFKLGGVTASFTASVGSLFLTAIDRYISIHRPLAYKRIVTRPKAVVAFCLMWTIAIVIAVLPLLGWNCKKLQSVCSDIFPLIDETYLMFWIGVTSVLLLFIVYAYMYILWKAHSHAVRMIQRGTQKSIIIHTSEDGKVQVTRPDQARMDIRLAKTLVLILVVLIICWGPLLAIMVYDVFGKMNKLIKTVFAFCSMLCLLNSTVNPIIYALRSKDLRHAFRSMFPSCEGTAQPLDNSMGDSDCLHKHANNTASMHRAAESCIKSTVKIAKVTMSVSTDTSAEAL

SMILES: CCCCCCC(C)(C)c1ccc([C@@H]2C[C@H](O)CC[C@H]2CCCO)c(O)c1 [CP55940]
- Fraction high (CB1R [1]; hippocampal membranes of R6/1 WIN (1 mg/kg) mice): 0.6378^$$$
- Fraction high (CB1R [1]; hippocampal membranes of WT WIN (1 mg/kg) mice): 0.4654
- Fraction high (CB1R [1]; hippocampal membranes of WT veh mice): 0.4696
- IC50 (CB1R [1]; IC50 (single binding site), hippocampal membranes of R6/1 veh mice): 64.4 ± 12.1 nM
- IC50 (CB1R [1]; IC50, first value (high-affinity site), hippocampal membranes of R6/1 WIN (1 mg/kg) mice): 10.9 ± 16 nM
- IC50 (CB1R [1]; IC50, first value (high-affinity site), hippocampal membranes of WT WIN (1 mg/kg) mice): 18 ± 16.7 nM
- IC50 (CB1R [1]; IC50, first value (high-affinity site), hippocampal membranes of WT veh mice): 23.2 ± 18.8 nM
- IC50 (CB1R [1]; read-out: IC50, second value (low-affinity site), hippocampal membranes of R6/1 WIN (1 mg/kg) mice): 382 nM
- IC50 (CB1R [1]; read-out: IC50, second value (low-affinity site), hippocampal membranes of WT WIN (1 mg/kg) mice): 850 nM
- IC50 (CB1R [1]; read-out: IC50, second value (low-affinity site), hippocampal membranes of WT veh mice): 1140 nM

SMILES: CCCCCc1cc(O)c2c(c1)OC(C)(C)[C@@H]1CCC(C)=C[C@@H]21 [THC, Δ9-tetrahydrocannabinol]
- mHtt accumulation (mHtt): alleviates
- cognitive function (aged mice): improves
- cortical spine density (aged mice): increasing
- synaptic protein expression (aged mice): increasing

SMILES: Cc1c(C(=O)c2cccc3ccccc23)c2cccc3c2n1[C@H](CN1CCOCC1)CO3 [WIN, WIN 55212–2]
- time spent in the periphery and the center of the open field arena (WT mice [2]): No adverse effects
- total distance traveled during the open field test (WT mice [2]): No adverse effects
- spatial memory (NOLT) (WT mice [3]): no differences
- recognition memory (NORT) (WT mice [4]): no differences
- working memory (Y-maze) (WT mice [5]): no differences
- spontaneous alternation performance (Y-maze) (R6/1 mice; presymptomatic stage (11 weeks, Fig. S4d)): significantly enhanced
- spontaneous alternation performance (Y-maze) (R6/1 mice; symptomatic stage (13 weeks, Fig. 3d)): significantly enhanced
- memory deficits (NOLT, NORT, Y-maze) [6]: restored
- CB1R levels, Western blot (CB1R [7]; Hdh^Q7/Q111 KI mice 6 months, hippocampal lysates, sub-chronic WIN): trend of increase
- CB1R protein level, Western blot (CB1R [7]; R6/1 mice 13 weeks): restored
- CB1R protein level, Western blot (CB1R [7]; WT mice): significantly modulated
- CB1R staining, immunohistochemistry (CB1R [8]; Hdh^Q7/Q111 KI mice, sub-chronic WIN): restored to near WT levels
- CB1R levels, immunohistochemistry (CB1R [8]; R6/1 mice, WIN 1 mg/kg i.p. 10 days): comparable to those of WT controls
- density of intranuclear mHtt inclusion [9]: significant reduction
- CB2R levels, Western blot (CB2R; Hdh^Q7/Q111 KI mice 6 months): did not significantly affect
- CB2R levels, Western blot (CB2R; R6/1 mice 13 weeks): did not significantly affect
- apical dendritic spine density reduction in CA1 pyramidal neurons (CA1 pyramidal neurons [10]): reversed
- PSD95 protein level (PSD95): restored
- BDNF protein level (BDNF): restored
- DSI: suppression of IPSC amplitude after 5-s depolarizing step (-70 to 0 mV) (CA1 pyramidal neurons [11]): 52.70% ± 5.65
- performance in novel object recognition test (adult rats): did not affect
- performance in open field test (adult rats): did not affect
- CB1R activity in the cortex [12]: increase
- cognitive performance [12]: improved
- CB1R protein levels in the hippocampus (CB1R [13]): significantly increased
- cytoskeletal remodeling in the hippocampus (young rats): increased dendritic thickness and branching
- neuroprotection [14]: neuroprotective effects
